Experiment in all cases: biochemical
Experiment [1] concerns the target T1, Atroxlysin-I (Atr-I) (Bothrops atrox, UniProt P85420).
The target of the next experiment is Leucurolysin-a (Leuc-a) (Bothrops leucurus, UniProt P84907).
The target of experiment [2] is T1, Atroxlysin-I (Atr-I). Type of experiment: binding.

Residues, ends and D or L forms follow the SMILES beside them. *: point of attachment. Cbz = O=C(OCc1ccccc1)*; NHOH = ON*

Usually IC50 stands for the midpoint of a concentration-inhibition curve. One may read the Ki as the equilibrium dissociation constant of an inhibitor or competing ligand from its target. Lower therefore signals higher affinity.

T1 sequence (P85420 whole entry, added parts left off): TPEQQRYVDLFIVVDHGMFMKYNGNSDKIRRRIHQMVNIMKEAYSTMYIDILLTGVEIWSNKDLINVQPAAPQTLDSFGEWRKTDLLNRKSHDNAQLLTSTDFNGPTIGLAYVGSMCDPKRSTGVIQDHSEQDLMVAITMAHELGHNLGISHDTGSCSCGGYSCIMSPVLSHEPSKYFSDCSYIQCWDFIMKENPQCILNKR
Sequence of Leucurolysin-a (Leuc-a) (P84907 whole entry, looked up): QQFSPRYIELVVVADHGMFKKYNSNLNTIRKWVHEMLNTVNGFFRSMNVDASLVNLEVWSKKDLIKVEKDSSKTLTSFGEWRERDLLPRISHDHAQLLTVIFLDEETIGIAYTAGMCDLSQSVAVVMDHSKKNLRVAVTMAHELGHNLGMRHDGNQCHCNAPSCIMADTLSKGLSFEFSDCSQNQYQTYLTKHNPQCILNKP

For the compound `CC1(C)SCCN(S(=O)(=O)c2ccc(Oc3ccncc3)cc2)[C@H]1C(=O)NO` [PRI, prinomastat], at Atroxlysin-I (Atr-I) [1], the Hill coef. came out at 0.77 and the IC50 is 160 ± 10 nM. On Leucurolysin-a (Leuc-a), the Hill coef. came out at 1.96 and 20 ± 10 nM corresponded to half-maximal inhibition (IC50). On Atroxlysin-I (Atr-I) [2], this compound came in with a Ki of 70 ± 50 nM, an enthalpic contribution of -0.8 kcal/mol and an entropic contribution of 30 cal/K/mol.
Turning to `CNC(=O)[C@H](CCc1ccccc1)NC(=O)[C@H](CC(=O)NO)CC(C)C` [MMP, mmp-III inhibitor], at Atroxlysin-I (Atr-I) [1], the Hill coef. came out at 1.79 and half-maximal inhibition (IC50) was put at 50 ± 10 nM. Also, on Leucurolysin-a (Leuc-a), the Hill coef. is recorded as 1.34 and the IC50 worked out at 360 ± 170 nM.
Taken in the same sequence, the figures for `CC(C)C[C@H](NC(=O)[C@@H]1CCCN1C(=O)OCc1ccccc1)C(=O)N[C@@H](C)C(=O)NO` [COL, collagenase-I inhibitor] (Cbz-Pro-Leu-Ala-{NHOH}) were 2.28, 8000 ± 2000 nM, 1.65 and 6000 ± 2000 nM.
`CC(C)(NS(=O)(=O)c1ccc(Oc2ccc(F)cc2)cc1)C(=O)NO` [CP4, CP471474]: on Atroxlysin-I (Atr-I) [1], the Hill coef. is 2.37 and the IC50 was found to be 20 ± 10 nM. At Leucurolysin-a (Leuc-a), this compound displayed a Hill coef. of 0.55 and an IC50 of 210 ± 110 nM. On Atroxlysin-I (Atr-I) [2], this compound came in with a Ki of 160 ± 10 nM, an enthalpic contribution of -3.8 kcal/mol and an entropic contribution of 18.4 cal/K/mol.
Consider `CNC(=O)[C@@H](NC(=O)[C@H](CC(C)C)[C@H](O)C(=O)NO)C(C)(C)C` [MAR, marimastat], for which, on Atroxlysin-I (Atr-I) [1], the Hill coef. is 2.05 and the IC50 is 80 ± 10 nM. On Leucurolysin-a (Leuc-a), the Hill coef. is 0.78 and the IC50 was 690 ± 20 nM. Besides, at Atroxlysin-I (Atr-I) [2], the Ki was determined as 60 ± 10 nM, the enthalpic contribution was -1.5 kcal/mol and the entropic contribution is on record as 28.2 cal/K/mol.
For `CNC(=O)[C@H](Cc1ccccc1)NC(=O)[C@H](CC(C)C)[C@H](CSc1cccs1)C(=O)NO` [BAT, batimastat], at Atroxlysin-I (Atr-I) [1], the Hill coef. is reported as 0.85 and the IC50 stood at 50 ± 30 nM. On Leucurolysin-a (Leuc-a), the Hill coef. is recorded as 4.91 and the IC50 was determined as 12000 ± 1000 nM.

Values taken from publication PMC11684173 (ACS Omega, 2024).
